Read-outs that look alike come from different tables or passages of the source.
How the values were obtained:
Assay type in all cases: cell-based
[1] = molecular target: T1, OR2AP1 (Homo sapiens, UniProt Q8NGE2); experiment: Luciferase assay with odorant mixtures/single ingredients, OR with SEQ ID NO: 221
T1 construct: expressed in transfected cells; host or cells: HEK293T stably expressing human RTP1S(V227I) and RTP2(L220R) (general method)
T1 sequence (Q8NGE2 with tags, fused parts or gaps): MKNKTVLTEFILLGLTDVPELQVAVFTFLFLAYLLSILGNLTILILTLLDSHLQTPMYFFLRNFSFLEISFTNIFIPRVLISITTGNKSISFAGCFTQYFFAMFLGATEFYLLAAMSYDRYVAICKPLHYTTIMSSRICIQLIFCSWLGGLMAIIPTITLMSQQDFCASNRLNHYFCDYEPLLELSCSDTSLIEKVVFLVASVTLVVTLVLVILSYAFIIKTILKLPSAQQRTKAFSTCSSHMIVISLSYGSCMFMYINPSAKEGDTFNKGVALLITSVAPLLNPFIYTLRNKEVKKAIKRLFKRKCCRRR

[2] = molecular target: T2, OR10A6(A117V,V140G,L287P) (Homo sapiens, UniProt Q8NH74, A117V/L287P/V140G); experiment: as above
T2 construct: expressed in transfected cells; host or cells: HEK293T stably expressing human RTP1S(V227I) and RTP2(L220R) (general method)
T2 sequence (Q8NH74 with tags, fused parts or gaps A117V/V140G/L287P): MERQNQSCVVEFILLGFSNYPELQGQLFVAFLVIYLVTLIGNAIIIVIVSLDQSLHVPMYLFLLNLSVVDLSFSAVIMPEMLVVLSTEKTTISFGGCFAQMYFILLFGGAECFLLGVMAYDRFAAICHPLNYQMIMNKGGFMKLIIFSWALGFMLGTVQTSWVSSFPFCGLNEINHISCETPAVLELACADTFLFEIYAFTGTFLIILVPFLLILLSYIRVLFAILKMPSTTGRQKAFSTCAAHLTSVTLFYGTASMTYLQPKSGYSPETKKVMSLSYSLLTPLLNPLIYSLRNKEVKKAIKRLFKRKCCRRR
Text: (§1) All human class II OR and all key genetic variants of these OR were synthesized with a sequence coding for an identical modified C-terminal domain […] (SEQ ID NO: 221) in the vector pcDNA3.1(+) to generate a library of all class II OR with an improved C-terminal domain. Class II OR library members with modified C-terminal domains
(§2) Similarly, a mixture of odorants with fruity-lactonic descriptors was made containing equal amounts of dodecalactone delta, heptalactone gamma, octalactone gamma, nonalactone gamma, undecalactone gamma, decalactone gamma, dodecalactone gamma, decalactone delta, methyl tuberate and nectaryl. […] Table 25. OR identified by screening class II OR with a mixture of fruity lactones
(§3) In a subsequent de-convolution experiment, the single ingredients were tested in a dose-response test on all the identified OR. […] Thus, OR2AP1 and OR2J2 are particularly strongly activated by the long-chain dodecalactone gamma, while OR10A3 is very sensitive to several longer chain lactones. […] Among the five OR, OR10A3 is the most sensitive. […] Table 26. OR identified by screening class II OR with a mixture of fruity lactones tested with individual lactones in a dose-response analysis

[3] = molecular target: T3, OR10A3 (Homo sapiens, UniProt P58181); experiment: as above
T3 construct: expressed in transfected cells; host or cells: HEK293T stably expressing human RTP1S(V227I) and RTP2(L220R) (general method)
T3 sequence (P58181 with tags, fused parts or gaps): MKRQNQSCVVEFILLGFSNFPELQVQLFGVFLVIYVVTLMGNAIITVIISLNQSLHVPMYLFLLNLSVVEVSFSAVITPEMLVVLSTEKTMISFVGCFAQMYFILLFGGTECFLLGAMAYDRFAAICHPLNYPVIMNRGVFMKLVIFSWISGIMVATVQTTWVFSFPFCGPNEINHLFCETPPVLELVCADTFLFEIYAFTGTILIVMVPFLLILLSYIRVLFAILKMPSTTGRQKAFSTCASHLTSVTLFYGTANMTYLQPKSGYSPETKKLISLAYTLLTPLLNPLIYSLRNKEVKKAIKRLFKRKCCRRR
Text: as §1, §2, §3

[4] = molecular target: T4, OR10J1(M51I,I92M) (Homo sapiens, UniProt P30954, I103M/M62I); experiment: as above
T4 construct: expressed in transfected cells; host or cells: HEK293T stably expressing human RTP1S(V227I) and RTP2(L220R) (general method)
T4 sequence (P30954 with tags, fused parts or gaps M62I/I103M): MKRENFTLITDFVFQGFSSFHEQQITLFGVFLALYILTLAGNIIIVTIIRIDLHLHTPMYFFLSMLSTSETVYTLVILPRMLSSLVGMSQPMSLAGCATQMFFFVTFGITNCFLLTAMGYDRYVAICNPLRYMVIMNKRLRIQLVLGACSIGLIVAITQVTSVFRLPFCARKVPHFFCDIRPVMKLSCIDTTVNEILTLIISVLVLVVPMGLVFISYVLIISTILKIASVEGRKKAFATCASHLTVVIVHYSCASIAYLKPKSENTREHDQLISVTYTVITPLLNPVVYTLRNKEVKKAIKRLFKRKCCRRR
Text: as §1, §2, §3

[5] = molecular target: T5, OR2J2 (Homo sapiens, UniProt O76002, A146V/A218T/A302I/G300K/H297E/H74Y); experiment: as above
T5 construct: expressed in transfected cells; host or cells: HEK293T stably expressing human RTP1S(V227I) and RTP2(L220R) (general method)
T5 sequence (O76002 with tags, fused parts or gaps H74Y/A146V/A218T/H297E/G300K/A302I): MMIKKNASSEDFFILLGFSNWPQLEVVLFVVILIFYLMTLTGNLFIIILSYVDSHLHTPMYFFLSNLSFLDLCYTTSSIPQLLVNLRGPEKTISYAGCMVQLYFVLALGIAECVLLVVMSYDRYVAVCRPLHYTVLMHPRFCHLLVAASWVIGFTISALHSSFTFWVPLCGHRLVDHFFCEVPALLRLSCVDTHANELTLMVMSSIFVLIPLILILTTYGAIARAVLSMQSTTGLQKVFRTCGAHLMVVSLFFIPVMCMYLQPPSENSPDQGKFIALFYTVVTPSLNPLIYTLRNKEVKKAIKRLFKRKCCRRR
Text: as §1, §2, §3

[6] = molecular target: T6, OR2T4 (Homo sapiens, UniProt Q8NH00, D328E/G331D/M330K); experiment: cell-based; details: OR2T4 with SEQ ID NO: 86
T6 construct: expressed in transfected cells; host or cells: HEK293T cells stably expressing human RTP1S (V227I) and RTP2 (L220R)
T6 sequence (Q8NH00 with tags, fused parts or gaps D328E/M330K/G331D): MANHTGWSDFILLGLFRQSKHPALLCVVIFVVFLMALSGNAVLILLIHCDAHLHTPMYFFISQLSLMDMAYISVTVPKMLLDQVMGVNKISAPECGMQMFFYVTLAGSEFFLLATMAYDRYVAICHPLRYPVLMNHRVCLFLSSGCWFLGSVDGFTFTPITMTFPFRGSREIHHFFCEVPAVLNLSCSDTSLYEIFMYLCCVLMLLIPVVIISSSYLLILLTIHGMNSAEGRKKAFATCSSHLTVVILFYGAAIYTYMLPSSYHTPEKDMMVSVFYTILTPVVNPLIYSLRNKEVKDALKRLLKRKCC
Text: (§4) To create an expression plasmid, an OR coding sequence fused at the end of TM7 to the desired C-terminus sequence was synthesized by a DNA synthesis service provider (BioCat GmbH, Germany) and inserted into pcDNA3.1(+) (Invitrogen, MA, USA) downstream of the CMV promoter sequence (SEQ ID NO: 82) using BamHI and Notl restriction sites. All the synthetic OR nucleotide sequences described below in Examples 1-15 further contained at their N-terminus a nucleotide sequence encoding a signal peptide (mmLucy-FLAG-rho, SeQ ID NOs: 80, 81) and at the C-terminus the bgh terminator sequence (SEQ ID NO: 83). All the OR expression plasmids also contain a Kozak sequence (GCCACC) between the BamHI restriction site and the start codon of the signal peptide. These plasmids thus contain a constitutively expressed OR gene.

[7] = molecular target: T7, OR5A2 (Homo sapiens, UniProt Q8NGI9); experiment: Luciferase dose-response, wild-type vs changed C-terminus (SEQ ID NO: 86); details: OR5A2 with SEQ ID NO: 86
T7 construct: expressed in transfected cells; host or cells: HEK293T cells with stably integrated human RTP1S (V227I) and RTP2 (L220R)
T7 sequence (Q8NGI9 with tags, fused parts or gaps): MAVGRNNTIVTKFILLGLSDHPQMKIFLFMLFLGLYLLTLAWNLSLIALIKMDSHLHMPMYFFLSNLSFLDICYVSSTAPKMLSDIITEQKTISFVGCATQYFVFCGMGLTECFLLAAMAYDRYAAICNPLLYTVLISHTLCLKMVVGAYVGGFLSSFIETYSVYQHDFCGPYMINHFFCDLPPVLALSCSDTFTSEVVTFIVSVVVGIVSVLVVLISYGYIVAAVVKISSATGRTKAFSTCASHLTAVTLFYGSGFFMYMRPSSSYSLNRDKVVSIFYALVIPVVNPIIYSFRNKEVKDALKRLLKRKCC
Text: as §4

[8] = molecular target: T8, OR7C1 (Homo sapiens, UniProt O76099, D296E/G302K/M297V/R299D/T295K); experiment: as above; details: for EC50: read-out: Potency EC50
T8 construct: expressed in transfected cells; host or cells: HEK293T cells stably expressing human RTP1S (V227I) and RTP2 (L220R); transient transfection of pcDNA3.1(+) OR plasmid
T8 sequence (O76099 with tags, fused parts or gaps T295K/D296E/M297V/R299D/G302K limits assumed): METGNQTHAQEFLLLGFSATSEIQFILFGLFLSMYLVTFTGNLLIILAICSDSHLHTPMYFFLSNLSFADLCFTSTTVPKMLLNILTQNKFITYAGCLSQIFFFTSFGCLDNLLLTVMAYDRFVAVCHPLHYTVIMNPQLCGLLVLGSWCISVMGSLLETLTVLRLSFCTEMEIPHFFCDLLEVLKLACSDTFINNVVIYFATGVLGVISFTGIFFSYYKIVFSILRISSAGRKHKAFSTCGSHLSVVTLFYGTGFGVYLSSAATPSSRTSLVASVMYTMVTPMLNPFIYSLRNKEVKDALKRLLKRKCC
Text: as §4

| SMILES | EC2 (concentration for 2-fold luciferase induction) [1] | EC2 (concentration for 2-fold luciferase induction) [2] | EC10 (concentration for 10-fold OR activation) [3] [µM] | EC2 (concentration for 2-fold luciferase induction) [4] | EC2 (concentration for 2-fold luciferase induction) [5] | also measured |
| --- | --- | --- | --- | --- | --- | --- |
| CCCC1CCC(=O)O1 (stereo not shown) [Heptalactone gamma] | inactive | inactive | 298.04 | inactive | inactive | – |
| CCCCCCCC1CCCC(=O)O1 (stereo not shown) [Dodecalactone delta] | 15.76 µM | 1.11 µM | 2.59 | 31.38 µM | 35.12 µM | – |
| CC1OCCC1S (stereo not shown) [2-methyl-3-tetrahydrofuranthiol] | – | – | – | – | – | ligands identified in screening of sulfur odorants [6]: good ligands |
| CC1=CCC(C(C)CC2CCCC2=O)CC1 (stereo not shown) [Nectaryl] | 19.72 µM | 1.12 µM | 2.32 | inactive | – | – |
| CCCSSCCC [dipropyl disulfide] | – | – | – | – | – | ligands identified in screening of sulfur odorants [6]: good ligands |
| CCCCCCCC1CCC(=O)O1 (stereo not shown) [Undecalactone gamma] | 6.53 µM | 0.34 µM | 0.28 | 2.11 µM | 0.71 µM | – |
| CCOc1cc(C=O)ccc1O [ethyl vanillin] | – | – | – | – | – | response of the modified receptor [7]: no response |
| CCCCC1CCC(=O)O1 (stereo not shown) [Octalactone gamma] | inactive | inactive | 26.93 | 101.73 µM | 65.20 µM | – |
| CC(CO)C1=C2C(C)(C)C3CCC2(C3)C(C)(C)CC1 (stereo not shown) [Ambermax] | – | – | – | – | – | Comments on efficacy [8]: 3.5-fold lower maximal induction for wild-type; Fold-improvement potency [8]: 2.7; Fold-improvement threshold [8]: 16.2; luciferase induction ([8]; 1 µM, OR7C1 with SEQ ID NO: 86): around 10 fold; EC50 ([8]; changed C-term SEQ ID NO: 86): 2.3 µM; Detection threshold; concentration for 2-fold induction ([8]; changed C-term. SEQ ID NO: 86): 0.17 µM; Detection threshold; concentration for 2-fold induction ([8]; wild-type): 2.76 µM; EC50 ([8]; wild-type): 6.14 µM |
| CCCCCCCCC1CCC(=O)O1 (stereo not shown) [Dodecalactone gamma] | 1.31 µM | 0.48 µM | 0.85 | 5.31 µM | 1.41 µM | – |
| CCCCCCC1CCC(=O)O1 (stereo not shown) [Decalactone gamma] | 33.66 µM | 1.62 µM | 0.84 | 3.63 µM | 3.27 µM | – |
| CCCCCC1CCC(=O)O1 (stereo not shown) [Nonalactone gamma] | inactive | 11.34 µM | 2.83 | 11.14 µM | 12.85 µM | – |
| CCCCCC1CCCC(=O)O1 (stereo not shown) [Decalactone delta] | inactive | 5.31 µM | 2.10 | 31.73 µM | 98.89 µM | – |

From patent EP4664463A1, “COMPUTER-IMPLEMENTED METHOD FOR OLFACTORY PROPERTY PREDICTION” (Givaudan SA, priority 2024, dated 2025)
